Drawing on US20250282785A1, “PYRROLIDINONE DERIVATIVES AS INHIBITORS OF NF KAPPA B INDUCING KINASE” (priority 2022, published 2025), this text covers IC50 for 26 molecules.

Assay [1] concerns the target Recombinant Human NF-Kappab-Inducing Kinase (NIK/MAP3K14) (Homo sapiens, UniProt Q99558). Nature of the assay: Inhibition of auto-phosphorylation of recombinant human NIK/MAP3K14 (AlphaScreen). Format: biochemical. To be noted: NIK/MAP3K14 auto-phosphorylation, 5 microM ATP, 1 nM enzyme, 2 h at 25° C.; average of values; read-out: Assay 1 IC50. An outline of the steps: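 GST-tagged NIK (1 nM) auto-phosphorylation with 5 µM ATP in Tris pH 7.5/MgCl2 buffer, 0.7% DMSO, 2 h at 25 °C. Phospho-IKK Ser176/180 antibody detected by AlphaScreen beads. Signal normalized to full-enzyme and no-ATP controls; IC50 from sigmoidal fit of % inhibition vs log concentration.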

Assay [2] relates to p-IKKα levels in L363 (NIK translocated multiple myeloma) cells. Put plainly: Effect of compounds on p-IKKα levels in L363 cells (AlphaLISA SureFire Ultra). To be noted: Homo sapiens, L-363; L363 cells, BAFF stimulated, MG132, 6 h; average of values; read-out: Assay 2 IC50. Format: cell-based. An outline of the steps: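 L363 myeloma cells were BAFF-stimulated (250 ng/ml) overnight in DMEM/0.5% BSA, then exposed 6 h at 37° C to compound (11-point 1:3 series, 0.3% DMSO) with BAFF plus 10 uM MG132. p-IKKα (Ser 176/180) was read by AlphaLISA SureFire Ultra in lysates. IC50 came from sigmoidal fits normalized to stimulated and unstimulated controls.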

Sequence of Recombinant Human NF-Kappab-Inducing Kinase (NIK/MAP3K14) (Q99558 whole entry): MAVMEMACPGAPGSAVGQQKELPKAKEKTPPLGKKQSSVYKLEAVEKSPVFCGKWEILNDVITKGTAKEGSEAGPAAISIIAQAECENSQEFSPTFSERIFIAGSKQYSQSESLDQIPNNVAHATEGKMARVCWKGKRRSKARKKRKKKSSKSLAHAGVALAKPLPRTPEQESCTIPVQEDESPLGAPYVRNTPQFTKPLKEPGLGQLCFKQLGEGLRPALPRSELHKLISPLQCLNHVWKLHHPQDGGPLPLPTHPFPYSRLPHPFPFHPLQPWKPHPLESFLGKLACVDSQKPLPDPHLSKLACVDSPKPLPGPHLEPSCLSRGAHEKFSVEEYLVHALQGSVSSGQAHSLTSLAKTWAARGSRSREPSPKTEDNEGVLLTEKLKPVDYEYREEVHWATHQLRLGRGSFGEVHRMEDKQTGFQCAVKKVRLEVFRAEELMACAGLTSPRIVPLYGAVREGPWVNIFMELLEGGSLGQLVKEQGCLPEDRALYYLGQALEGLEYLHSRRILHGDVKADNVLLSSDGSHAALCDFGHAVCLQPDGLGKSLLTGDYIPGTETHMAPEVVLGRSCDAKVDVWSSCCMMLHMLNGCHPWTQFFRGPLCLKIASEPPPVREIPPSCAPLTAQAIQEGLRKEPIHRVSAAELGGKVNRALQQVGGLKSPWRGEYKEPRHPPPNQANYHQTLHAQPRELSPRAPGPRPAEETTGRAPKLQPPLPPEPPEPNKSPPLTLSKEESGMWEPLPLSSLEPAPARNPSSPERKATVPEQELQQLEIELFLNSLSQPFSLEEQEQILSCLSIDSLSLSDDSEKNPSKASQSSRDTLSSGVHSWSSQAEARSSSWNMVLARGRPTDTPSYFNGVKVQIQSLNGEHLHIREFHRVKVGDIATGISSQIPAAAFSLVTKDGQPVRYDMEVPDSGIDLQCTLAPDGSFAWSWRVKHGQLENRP

For the molecule `CN1CC[C@@](O)(c2cc(-c3cccc(-c4ncc(Nc5cnn(C)c5)c(C(N)=O)n4)c3)no2)C1=O` [Example 137, (R)-2-(3-(5-(3-Hydroxy-1-methyl-2-oxopyrrolidin-3-yl)isoxazol-3-yl)phenyl)-5-((1-methyl-1H-pyrazol-4-yl)amino)pyrimidine-4-carboxamide], the IC50 in assay [1] and in assay [2] was under 100 nM throughout.

Consider `COc1ncc(-c2cccc(-c3cc([C@]4(O)CCN(C)C4=O)on3)c2)c(C(N)=O)n1` [Example 138, (R)-5-(3-(5-(3-Hydroxy-1-methyl-2-oxopyrrolidin-3-yl)isoxazol-3-yl)phenyl)-2-methoxypyrimidine-4-carboxamide], for which the concentration for half-maximal inhibition (IC50) in assay [1] and in assay [2] was over 501 nM throughout.

For the molecule `CN1CC[C@@](O)(c2cc(-c3cccc(-c4cc5cc[nH]c5c(C(N)=O)n4)c3)no2)C1=O` [Example 139, (R)-5-(3-(5-(3-Hydroxy-1-methyl-2-oxopyrrolidin-3-yl)isoxazol-3-yl)phenyl)-1H-pyrrolo[2,3-c]pyridine-7-carboxamide], the concentration for half-maximal inhibition (IC50) in assay [1] and in assay [2] was under 100 nM throughout.

For the molecule `CN1CC(F)(F)[C@@](O)(c2cc(-c3ccc(F)c(-c4nc(C(N)=O)c5[nH]ccc5n4)c3)no2)C1=O` [Example 140, (R)-2-(5-(5-(4,4-Difluoro-3-hydroxy-1-methyl-2-oxopyrrolidin-3-yl)isoxazol-3-yl)-2-fluorophenyl)-5H-pyrrolo[3,2-d]pyrimidine-4-carboxamide], the IC50 in assay [1] and in assay [2] was under 100 nM each time.

Consider `CN1CC[C@@](O)(c2cc(-c3cccc(-c4ncc(Nc5cn[nH]c5)c(C(N)=O)n4)c3)no2)C1=O` [Example 141, (R)-5-((1H-Pyrazol-4-yl)amino)-2-(3-(5-(3-hydroxy-1-methyl-2-oxopyrrolidin-3-yl)isoxazol-3-yl)phenyl)pyrimidine-4-carboxamide], for which the 50% inhibitory concentration (IC50) in assay [1] and in assay [2] was under 100 nM each time.

Consider `Cc1n[nH]c(C)c1Nc1cnc(-c2cccc(-c3cc([C@]4(O)CCN(C)C4=O)on3)c2)nc1C(N)=O` [Example 142, (R)-5-((3,5-Dimethyl-1H-pyrazol-4-yl)amino)-2-(3-(5-(3-hydroxy-1-methyl-2-oxopyrrolidin-3-yl)isoxazol-3-yl)phenyl)pyrimidine-4-carboxamide], for which the 50% inhibitory concentration (IC50) in assay [1] was under 100 nM; in assay [2] it was 100 to 500 nM.

Take `CN1CC[C@@](O)(c2cc(-c3cccc(-c4cc5cn[nH]c5c(C(N)=O)n4)c3)no2)C1=O` [Example 143, (R)-5-(3-(5-(3-hydroxy-1-methyl-2-oxopyrrolidin-3-yl)isoxazol-3-yl)phenyl)-1H-pyrazolo[3,4-c]pyridine-7-carboxamide]: the 50% inhibitory concentration (IC50) in assay [1] and in assay [2] was under 100 nM in each case.

With `COc1cn(C)nc1Nc1cnc(-c2cccc(-c3cc([C@]4(O)CCN(C)C4=O)on3)c2)nc1C(N)=O` [Example 144, (R)-2-(3-(5-(3-Hydroxy-1-methyl-2-oxopyrrolidin-3-yl)isoxazol-3-yl)phenyl)-5-((4-methoxy-1-methyl-1H-pyrazol-3-yl)amino)pyrimidine-4-carboxamide], the IC50 in assay [1] and in assay [2] was under 100 nM in each case.

On to `CN1CC[C@@](O)(c2cc(-c3cccc(-c4ncc(Nc5cnn(CC(F)(F)F)c5)c(C(N)=O)n4)c3)no2)C1=O` [Example 145, (R)-2-(3-(5-(3-Hydroxy-1-methyl-2-oxopyrrolidin-3-yl)isoxazol-3-yl)phenyl)-5-((1-(2,2,2-trifluoroethyl)-1H-pyrazol-4-yl)amino)pyrimidine-4-carboxamide], for which the IC50 in assay [1] and in assay [2] was under 100 nM in each case.

Take `CN1CC[C@@](O)(c2cc(-c3cccc(-c4nccc(C(N)=O)n4)c3)no2)C1=O` [Example 146, (R)-2-(3-(5-(3-hydroxy-1-methyl-2-oxopyrrolidin-3-yl)isoxazol-3-yl)phenyl)pyrimidine-4-carboxamide]: the concentration for half-maximal inhibition (IC50) in assay [1] is under 100 nM; in assay [2], over 501 nM.

Consider `CN1CC[C@@](O)(c2cc(-c3cccc(-c4cncc(C(N)=O)n4)c3)no2)C1=O` [Example 147, (R)-6-(3-(5-(3-Hydroxy-1-methyl-2-oxopyrrolidin-3-yl)isoxazol-3-yl)phenyl)pyrazine-2-carboxamide], for which the 50% inhibitory concentration (IC50) in assay [1] is under 100 nM; in assay [2], over 501 nM.

On to `CN1CC[C@@](O)(c2cc(-c3cccc(-c4cccc(C(N)=O)n4)c3)no2)C1=O` [Example 148, (R)-6-(3-(5-(3-Hydroxy-1-methyl-2-oxopyrrolidin-3-yl)isoxazol-3-yl)phenyl)picolinamide], for which the IC50 in assay [1] is under 100 nM; in assay [2] it was over 501 nM.

Turning to `CN1CC[C@](O)(c2cc(-c3cccc(-c4cccc(C(N)=O)n4)c3)no2)C1=O` [Example 149, (S)-6-(3-(5-(3-Hydroxy-1-methyl-2-oxopyrrolidin-3-yl)isoxazol-3-yl)phenyl)picolinamide], the IC50 in assay [1] and in assay [2] was over 501 nM throughout.

Turning to `Cc1ccc(-c2cccc(C(N)=O)n2)cc1-c1cc([C@]2(O)CCN(C)C2=O)on1` [Example 150, (R)-6-(3-(5-(3-Hydroxy-1-methyl-2-oxopyrrolidin-3-yl)isoxazol-3-yl)-4-methylphenyl)picolinamide], the 50% inhibitory concentration (IC50) in assay [1] and in assay [2] was over 501 nM throughout.

As for `Cc1ccc(-c2cc([C@]3(O)CCN(C)C3=O)on2)cc1-c1cccc(C(N)=O)n1` [Example 151, (R)-6-(5-(5-(3-Hydroxy-1-methyl-2-oxopyrrolidin-3-yl)isoxazol-3-yl)-2-methylphenyl)picolinamide], the 50% inhibitory concentration (IC50) in assay [1] and in assay [2] was over 501 nM each time.

Take `Cc1cc(-c2cc([C@]3(O)CCN(C)C3=O)on2)cc(-c2cccc(C(N)=O)n2)c1` [Example 152, (R)-6-(3-(5-(3-Hydroxy-1-methyl-2-oxopyrrolidin-3-yl)isoxazol-3-yl)-5-methylphenyl)picolinamide]: the values for the IC50 in assay [1] and in assay [2] were under 100 nM and over 501 nM, respectively.

Take `COc1cc(-c2cc([C@]3(O)CCN(C)C3=O)on2)cc(-c2cccc(C(N)=O)n2)c1` [Example 153, (R)-6-(3-(5-(3-Hydroxy-1-methyl-2-oxopyrrolidin-3-yl)isoxazol-3-yl)-5-methoxyphenyl)picolinamide]: the figures for the IC50 in assay [1] and in assay [2] were under 100 nM and over 501 nM, respectively.

`Cc1ccc(-c2cccc(-c3cc([C@]4(O)CCN(C)C4=O)on3)c2)nc1C(N)=O` [Example 154, (R)-6-(3-(5-(3-Hydroxy-1-methyl-2-oxopyrrolidin-3-yl)isoxazol-3-yl)phenyl)-3-methylpicolinamide]: the IC50 is under 100 nM in assay [1] and over 501 nM in assay [2].

Regarding `Cc1cc(C(N)=O)nc(-c2cccc(-c3cc([C@]4(O)CCN(C)C4=O)on3)c2)c1` [Example 155, (R)-6-(3-(5-(3-Hydroxy-1-methyl-2-oxopyrrolidin-3-yl)isoxazol-3-yl)phenyl)-4-methylpicolinamide], the 50% inhibitory concentration (IC50) in assay [1] was under 100 nM; in assay [2] it was 100 to 500 nM.

On to `Cc1ccc(C(N)=O)nc1-c1cccc(-c2cc([C@]3(O)CCN(C)C3=O)on2)c1` [Example 156, (R)-6-(3-(5-(3-hydroxy-1-methyl-2-oxopyrrolidin-3-yl)isoxazol-3-yl)phenyl)-5-methylpicolinamide], for which the IC50 was 100 to 500 nM in assay [1] and over 501 nM in assay [2].

Take `CN1CC[C@@](O)(c2cc(-c3cccc(-c4cccc(C(N)=O)c4)c3)no2)C1=O` [Example 157, (R)-3′-(5-(3-Hydroxy-1-methyl-2-oxopyrrolidin-3-yl)isoxazol-3-yl)-[1,1′-biphenyl]-3-carboxamide]: the IC50 in assay [1] and in assay [2] was over 501 nM in each case.

For the molecule `CN1CC[C@@](O)(c2cc(-c3cccc(-c4nc(C(N)=O)c5ccc(F)cc5n4)c3)no2)C1=O` [Example 158, (R)-7-Fluoro-2-(3-(5-(3-hydroxy-1-methyl-2-oxopyrrolidin-3-yl)isoxazol-3-yl)phenyl)quinazoline-4-carboxamide], the IC50 in assay [1] was under 100 nM; in assay [2], over 501 nM.

For `Cc1nc(N)c2nc(-c3ccc(-c4cc([C@]5(O)CCN(C)C5=O)on4)o3)ccc2n1` [Example 159, (R)-3-(3-(5-(4-Amino-2-methylpyrido[3,2-d]pyrimidin-6-yl)furan-2-yl)isoxazol-5-yl)-3-hydroxy-1-methylpyrrolidin-2-one], the IC50 is under 100 nM in assay [1] and 100 to 500 nM in assay [2].

With `CN1CC[C@@](O)(c2cc(-c3cccc(-c4nc(C(N)=O)c5ccc(F)cc5n4)c3)on2)C1=O` [Example 160, (R)-7-Fluoro-2-(3-(3-(3-hydroxy-1-methyl-2-oxopyrrolidin-3-yl)isoxazol-5-yl)phenyl)quinazoline-4-carboxamide], the IC50 is under 100 nM in assay [1] and over 501 nM in assay [2].

Turning to `CN1CC[C@@](O)(c2cc(-c3cccc(-c4ccnc(C(N)=O)n4)c3)no2)C1=O` [Example 162, (R)-4-(3-(5-(3-Hydroxy-1-methyl-2-oxopyrrolidin-3-yl)isoxazol-3-yl)phenyl)pyrimidine-2-carboxamide], the IC50 is under 100 nM in assay [1] and over 501 nM in assay [2].

As for `CN1CC[C@@](O)(c2cc(-c3cccc(-c4c[nH]c5nccnc45)c3)no2)C1=O` [Example 163, (R)-3-(3-(3-(5H-Pyrrolo[2,3-b]pyrazin-7-yl)phenyl)isoxazol-5-yl)-3-hydroxy-1-methylpyrrolidin-2-one], the IC50 in assay [1] is under 100 nM; in assay [2], over 501 nM.
